Results as given in patent publication US11426465B2, “Hydrazinyl-indole compounds and methods for producing a conjugate” (Redwood Bioscience, Inc., priority 2012, dated 2022).

Columns and labels:
[1] = HPLC kinetics assay: condensation of model amines with benzyloxyacetaldehyde; conditions: 50 μM amine and aldehyde, room temperature, 2 h, above pH 6
Protocol: Experimental Protocol for HPLC Kinetics Assay: Reaction mixtures contained amine 4, 6, 7, or 8 (50 μM), benzyloxyacetaldehyde (50 μM), bromocresol green (10 μM), and buffer (10 mM) in a 120 μL aqueous solution containing 6.7% MeCN, which was present to solubilize the stock solution (1 mM) of benzyloxyacetaldehyde. After 2 h at room temperature, a 100 μL aliquot was analyzed by HPLC, employing a gradient of 10 to 100% acetonitrile in water over 18 min.
As described above, buffered solutions containing 50 μM amine and aldehyde were incubated at room temperature for 2 h prior to analysis by HPLC.

[2] = basic moiety of the compound (trialkylhydrazine / O-alkylaminooxy); cited from earlier work

For `CNN(C)Cc1cc2ccccc2n1CCC(=O)O` [Compound 4, Piperidinium 3-(2-((1,2-dimethylhydrazinyl)methyl)-1H-indol-1-yl)propanoate], the “% conversion to product” value [1] is listed as “higher % conversion to product than the other amine nucleophiles” and the pKa [2] is listed as roughly 6.56.
